Assay results as given in patent US10966994B2, “Thromboxane receptor antagonists” (ATXA THERAPEUTICS LIMITED, priority 2015, dated 2021).

What was measured:
MCT-induced PAH = experiment: Monocrotoline (MCT)-induced model of pulmonary arterial hypertension (PAH) in rats; assay type: in vivo, rat; conditions: for lumen: total vessel diameter ratio versus animals treated with MCT-alone: day 28, oral BID, NTP42 and TP20 0.25 mg/kg/dose, Sildenafil 50 mg/kg/dose
Protocol: FIGS. 19-23 show the efficacy of NTP42 in the monocrotoline (MCT)-induced model of pulmonary arterial hypertension (PAH) in rats. In brief, male Wistar/Kyoto rats were given a single dose of MCT (60 mg/kg, subcutaneously) and then treated with twice daily doses (oral dosing) for 28 days with either the drug vehicle, the test article NTP42 (0.25 mg/kg/dose, BID) or with the reference compounds Sildenafil (50 mg/kg/dose, BID) or TP20 (0.25 mg/kg/dose, BID). As a control, a group of rats were left untreated, i.e., no MCT or therapeutic drugs. At Day 28, post-MCT induction, rats were anaesthetised for cardiac surgery & hemodynamic parameters recorded. Thereafter, the trachea, heart & lungs were removed en masse, the wet weights of the heart & lungs recorded and then the lungs were harvested, fixed and processed for histopathology.
Aperio's ImageScope was used to analyze the digitally scanned H&E stained lung sections, where 10 random squares (approx. size or each square=1×10^6 μm^2) per lower, middle and upper section of lung tissue were selected for analysis. Within each square, all blood arterioles (complete arterioles within each square and those touching the right & bottom were assessed but not the left or top of the squares) were measured in ImageScope for luminal and total vessel diameter where the ratio of lumen to total vessel diameter was determined for each arteriole.
FIGS. 24-27 show the effect of the test articles on the mean (±S.E.M.) lumen: total vessel diameter ratio for all arterioles (Total) and the arterioles categorized by size: small, <50 μm total diameter; medium, 50-100 μm and large, >100 μm.
FIG. 27 presents data representing the mean (±SEM) lumen: total vessel diameter ratio for large arterioles (>100 μm).

TP = target: T1, TP (Homo sapiens, UniProt P21731); experiment: U44069-mediated [Ca2+]i mobilization (CEREP); assay type: cell-based; conditions: CEREP assay, agonist U44069; read-out: IC50 Value for Inhibition of U44069-Mediated [Ca2+]i Mobilization
T1 construct: CEREP
T1 sequence (P21731 1-343): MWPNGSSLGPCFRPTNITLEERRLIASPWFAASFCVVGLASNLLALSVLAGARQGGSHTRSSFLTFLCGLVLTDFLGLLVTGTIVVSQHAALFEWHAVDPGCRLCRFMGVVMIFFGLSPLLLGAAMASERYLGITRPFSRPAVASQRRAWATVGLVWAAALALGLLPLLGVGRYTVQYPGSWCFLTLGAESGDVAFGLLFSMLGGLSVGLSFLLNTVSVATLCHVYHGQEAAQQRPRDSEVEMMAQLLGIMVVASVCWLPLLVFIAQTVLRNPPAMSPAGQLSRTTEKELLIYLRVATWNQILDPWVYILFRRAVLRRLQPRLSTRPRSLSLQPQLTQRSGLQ
Text: FIG. 18 presents the effect of NTP42 and NTP48 on TP- or U44069-mediated signaling (CEREP use the related U44069 rather than U46619), including IC50 values for inhibition (see also Table 4). Those effects indicate that NTP42 & NTP48 are potent antagonists of U46609 or TP. The differences in IC50 values may be attributed to the differences in the particular conditions of the assay, including differences in cell type, agonist, calcium indicator, etc.
Table 4 is an example of the IC50 values of NTP42 and NTP48 to antagonize TP-mediated [Ca^2+]i mobilization following stimulation of cells with the alternative TP agonist […].

SMILES | efficacy in the MCT-induced PAH model (hemodynamic and histological features) (MCT-induced PAH; MCT 60 mg/kg s.c., oral 0.25 mg/kg/dose BID for 28 days) | lumen: total vessel diameter ratio versus animals treated with MCT-alone (MCT-induced PAH) | IC50 (TP)
CC(C)(C)NC(=O)NS(=O)(=O)c1cc(C#N)ccc1Oc1cccc(-c2ccc(OC(F)F)cc2)c1 [NTP42] | efficacious | significantly increased | 3.28 ± 0.34 nM
CN(C)C(=O)c1ccc(-c2cccc(Oc3ccc(C#N)cc3S(=O)(=O)NC(=O)NC(C)(C)C)c2)cc1 [NTP48, 4-[3-[2-(tert-Butylcarbamoylsulfamoyl)-4-cyano-phenoxy]phenyl]-N,N-dimethyl-benzamide] | – | – | 7.71 ± 0.96 nM
COc1ccc(-c2cccc(Oc3ccc([N+](=O)[O-])cc3S(=O)(=O)NC(=O)NC(C)(C)C)c2)cc1 [TP20, reference compound] | – | significantly increased | –
